In US20250353891A1 (MEDIMMUNE LIMITED, priority 2022, published 2025):
Where two headings read alike, the source gives them in different places. Starred links: 1 amine or outer side, 2 acyl side, 3 side chain; linkers in the order of their positions; H or OH if unused. Non-standard residues stand in square brackets, D forms with d. Residues, ends and D or L forms follow the SMILES beside them. Groups on a side chain read outwards from the residue. *: point of attachment. C18 diacid = O=C(O)CCCCCCCCCCCCCCCCC(=O)*; Dip = N[C@H](C(=O)O)C(c1ccccc1)c1ccccc1; γGlu = O=C(O)[C@H](CCC(=O)[*:2])N[*:1]; αMeF = C[C@](N)(Cc1ccccc1)C(=O)O; Aib = CC(C)(N)C(=O)O

Assays:
[1] = molecular target: human GLP-1 receptor (hGLP-1R) (Homo sapiens, UniProt P43220); experiment: cAMP production (HTRF) in CHO cells expressing hGLP-1R; assay type: cell-based; design: expressed in transfected cells; details: for EC50: geometric mean, read-out: hGLP-1R EC50; for % Relative Potency Ratio: % GLP-1R activity relative to GLP-1 / % GlucR activity relative to glucagon
Chain of human GLP-1 receptor (hGLP-1R) (P43220 24-463): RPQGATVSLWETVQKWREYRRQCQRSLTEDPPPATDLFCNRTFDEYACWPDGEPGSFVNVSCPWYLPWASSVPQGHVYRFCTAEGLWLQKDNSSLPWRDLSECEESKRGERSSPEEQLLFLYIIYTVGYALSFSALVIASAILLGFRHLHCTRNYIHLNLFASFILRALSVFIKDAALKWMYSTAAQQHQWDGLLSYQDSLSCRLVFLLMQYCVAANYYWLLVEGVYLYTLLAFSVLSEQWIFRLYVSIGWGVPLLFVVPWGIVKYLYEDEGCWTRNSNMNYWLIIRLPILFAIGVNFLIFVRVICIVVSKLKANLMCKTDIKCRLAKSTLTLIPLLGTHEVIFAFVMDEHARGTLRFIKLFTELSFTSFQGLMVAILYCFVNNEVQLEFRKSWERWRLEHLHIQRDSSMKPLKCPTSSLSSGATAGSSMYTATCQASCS
Method in brief: (§1)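 Read-out: HTRF cAMP (anti-cAMP cryptate donor, cAMP-d2 acceptor in conjugate/lysis buffer), converted to % Delta F and fitted by 4-parameter logistic for EC50. Cell densities were 1×10^5 cells/mL (hGLP-1R) or 2×10^5 cells/mL (hGCGR). Stimulation lasted 30 min at room temperature.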

[2] = molecular target: human glucagon receptor (hGCGR) (Homo sapiens, UniProt P47871); experiment: cAMP production (HTRF) in CHO cells expressing hGCGR; assay type: cell-based; design: expressed in transfected cells; details: geometric mean, read-out: hGluc-R EC50
Chain of human glucagon receptor (hGCGR) (P47871 26-477): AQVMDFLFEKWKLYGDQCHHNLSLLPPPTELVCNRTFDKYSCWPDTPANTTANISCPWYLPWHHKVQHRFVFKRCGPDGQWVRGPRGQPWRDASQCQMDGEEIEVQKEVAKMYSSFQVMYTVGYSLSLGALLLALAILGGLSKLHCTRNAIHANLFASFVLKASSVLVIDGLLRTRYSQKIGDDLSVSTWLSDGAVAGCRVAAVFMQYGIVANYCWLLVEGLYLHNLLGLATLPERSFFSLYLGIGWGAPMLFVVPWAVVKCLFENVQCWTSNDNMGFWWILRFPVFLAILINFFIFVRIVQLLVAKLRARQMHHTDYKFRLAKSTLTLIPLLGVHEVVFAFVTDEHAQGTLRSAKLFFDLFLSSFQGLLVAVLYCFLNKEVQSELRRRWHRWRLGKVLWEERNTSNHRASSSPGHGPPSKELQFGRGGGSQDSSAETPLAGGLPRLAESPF
Method in brief: as §1

[3] = Table 7, peptides modified at position 20, cAMP in CHO hGLP-1R cells
[4] = Table 7, peptides modified at position 20, cAMP in CHO hGCGR cells

SMILES	EC50 [1, 3] [nM]	% Relative Potency Ratio ([1]; Table 7)	EC50 [2, 4] [nM]	% Relative Potency Ratio [1]	EC50 ([1]; cAMP, CHO cells, 0.1% BSA) [nM]	EC50 ([2]; cAMP, CHO cells, 0.1% BSA) [nM]
CC(C)C[C@H](NC(=O)[C@H](Cc1c[nH]c2ccccc12)NC(=O)[C@H](CCC(N)=O)NC(=O)[C@@H](NC(=O)[C@H](Cc1ccccc1)NC(=O)[C@H](CC(=O)O)NC(=O)[C@H](CCCCNC(=O)CC[C@H](NC(=O)CCCCCCCCCCCCCCCCC(=O)O)C(=O)O)NC(=O)[C@H](C)NC(=O)[C@H](CCCNC(=N)N)NC(=O)[C@H](CCCNC(=N)N)NC(=O)[C@H](CO)NC(=O)[C@H](CC(=O)O)NC(=O)[C@H](CC(C)C)NC(=O)[C@](C)(Cc1ccccc1)NC(=O)[C@H](CCCCN)NC(=O)[C@H](CO)NC(=O)[C@H](Cc1ccc(O)cc1)NC(=O)[C@H](CC(=O)O)NC(=O)[C@H](CO)NC(=O)[C@@H](NC(=O)[C@H](Cc1ccccc1)NC(=O)[C@@H](NC(=O)CNC(=O)[C@H](CCC(N)=O)NC(=O)C(C)(C)NC(=O)[C@@H](N)Cc1c[nH]cn1)[C@@H](C)O)[C@@H](C)O)C(C)C)C(=O)N[C@@H](CC(C)C)C(=O)NC(C)(C)C(=O)N[C@@H](CCC(=O)O)C(=O)O [Peptide 339] (H-H[Aib]QGTFTSDYSK[αMeF]LDSRRAK([γGlu-C18 diacid])DFVQWLL[Aib]E-OH; N-terminus assumed)	0.312	0.4	0.0703	–	–	–
CC(C)C[C@H](NC(=O)[C@H](Cc1c[nH]c2ccccc12)NC(=O)[C@H](CCC(N)=O)NC(=O)[C@@H](NC(=O)[C@H](Cc1ccccc1)NC(=O)[C@H](CC(=O)O)NC(=O)[C@H](CCCCNC(=O)CC[C@H](NC(=O)CCCCCCCCCCCCCCCCC(=O)O)C(=O)O)NC(=O)[C@H](C)NC(=O)[C@H](CCCNC(=N)N)NC(=O)[C@H](CCCNC(=N)N)NC(=O)[C@H](CO)NC(=O)[C@H](CC(=O)O)NC(=O)[C@H](CC(C)C)NC(=O)[C@](C)(Cc1ccccc1)NC(=O)[C@H](CCCCN)NC(=O)[C@H](CO)NC(=O)[C@H](Cc1ccc(O)cc1)NC(=O)[C@H](CC(=O)O)NC(=O)[C@H](CO)NC(=O)[C@@H](NC(=O)[C@H](Cc1ccccc1)NC(=O)[C@@H](NC(=O)CNC(=O)[C@H](CCC(N)=O)NC(=O)C(C)(C)NC(=O)[C@@H](N)Cc1c[nH]cn1)[C@@H](C)O)[C@@H](C)O)C(C)C)C(=O)N[C@@H](CC(C)C)C(=O)NC(C)(C)C(=O)N[C@H](C(=O)N[C@@H](CCC(=O)O)C(=O)O)[C@@H](C)O [Peptide 340]	0.312	0.6	0.0947	–	–	–
CC(C)C[C@H](NC(=O)[C@H](Cc1c[nH]c2ccccc12)NC(=O)[C@H](CCC(N)=O)NC(=O)[C@@H](NC(=O)[C@H](Cc1ccccc1)NC(=O)[C@H](CC(=O)O)NC(=O)[C@H](CCCCNC(=O)CC[C@H](NC(=O)CCCCCCCCCCCCCCCCC(=O)O)C(=O)O)NC(=O)[C@H](C)NC(=O)[C@H](CCCNC(=N)N)NC(=O)[C@H](CCCNC(=N)N)NC(=O)[C@H](CO)NC(=O)[C@H](CC(=O)O)NC(=O)[C@H](CC(C)C)NC(=O)[C@](C)(Cc1ccccc1)NC(=O)[C@H](CCCCN)NC(=O)[C@H](CO)NC(=O)[C@H](Cc1ccc(O)cc1)NC(=O)[C@H](CC(=O)O)NC(=O)[C@H](CO)NC(=O)[C@@H](NC(=O)[C@H](Cc1ccccc1)NC(=O)[C@@H](NC(=O)CNC(=O)[C@H](CCC(N)=O)NC(=O)C(C)(C)NC(=O)[C@@H](N)Cc1c[nH]cn1)[C@@H](C)O)[C@@H](C)O)C(C)C)C(=O)N[C@@H](CC(C)C)C(=O)N[C@@H](CCC(=O)O)C(=O)NC(C)(C)C(=O)N[C@H](C(=O)O)[C@@H](C)O [Peptide 341]	0.363	0.4	0.0728	–	–	–
CC[C@H](C)[C@H](NC(=O)[C@H](Cc1c[nH]c2ccccc12)NC(=O)[C@H](CCCCNC(=O)CC[C@H](NC(=O)CCCCCCCCCCCCCCCCC(=O)O)C(=O)O)NC(=O)[C@@H](NC(=O)[C@H](Cc1ccccc1)NC(=O)[C@H](CC(=O)O)NC(=O)[C@H](CCC(N)=O)NC(=O)[C@H](C)NC(=O)[C@H](C)NC(=O)[C@H](CCCNC(=N)N)NC(=O)[C@H](CO)NC(=O)[C@H](CC(=O)O)NC(=O)[C@H](CC(C)C)NC(=O)[C@@H](NC(=O)[C@H](CCCCN)NC(=O)[C@H](CO)NC(=O)[C@@H](NC(=O)[C@H](CC(=O)O)NC(=O)[C@H](CO)NC(=O)[C@@H](NC(=O)[C@H](Cc1ccccc1)NC(=O)[C@H](CO)NC(=O)CNC(=O)[C@H](CCC(N)=O)NC(=O)C(C)(C)NC(=O)[C@@H](N)Cc1c[nH]cn1)[C@@H](C)O)C(C)C)C(c1ccccc1)c1ccccc1)C(C)C)C(=O)N[C@@H](C)C(=O)N[C@@H](CC(N)=O)C(=O)N[C@H](C(N)=O)[C@@H](C)O [Peptide 343] (H-H[Aib]QGSFTSDVSK[Dip]LDSRAAQDFVK([γGlu-C18 diacid])WIANT-NH2; N-terminus assumed)	–	–	–	4.2	0.0586	0.126

The remaining lines, values ahead:

EC50 [1, 3] [nM]	% Relative Potency Ratio ([1]; Table 7)	EC50 [2, 4] [nM]	% Relative Potency Ratio [1]	EC50 ([1]; cAMP, CHO cells, 0.1% BSA) [nM]	EC50 ([2]; cAMP, CHO cells, 0.1% BSA) [nM]	SMILES
0.308	0.2	0.0257	–	–	–	CC(C)C[C@H](NC(=O)[C@H](Cc1c[nH]c2ccccc12)NC(=O)[C@H](CCC(N)=O)NC(=O)[C@@H](NC(=O)[C@H](Cc1ccccc1)NC(=O)[C@H](CC(=O)O)NC(=O)[C@H](CCCCNC(=O)CC[C@H](NC(=O)CCCCCCCCCCCCCCCCC(=O)O)C(=O)O)NC(=O)[C@H](C)NC(=O)[C@H](CCCNC(=N)N)NC(=O)[C@H](CCCNC(=N)N)NC(=O)C(C)(C)NC(=O)[C@H](CC(=O)O)NC(=O)[C@H](CC(C)C)NC(=O)[C@](C)(Cc1ccccc1)NC(=O)[C@H](CCCCN)NC(=O)[C@H](CO)NC(=O)[C@H](Cc1ccc(O)cc1)NC(=O)[C@H](CC(=O)O)NC(=O)[C@H](CO)NC(=O)[C@@H](NC(=O)[C@H](Cc1ccccc1)NC(=O)[C@@H](NC(=O)CNC(=O)[C@H](CCC(N)=O)NC(=O)C(C)(C)NC(=O)[C@@H](N)Cc1c[nH]cn1)[C@@H](C)O)[C@@H](C)O)C(C)C)C(=O)N[C@@H](CC(C)C)C(=O)NC(C)(C)C(=O)N[C@H](C(=O)O)[C@@H](C)O [Peptide 338]
0.22	43.4	4.83	–	–	–	CC[C@H](C)[C@H](NC(=O)[C@H](Cc1c[nH]c2ccccc12)NC(=O)[C@H](CCC(N)=O)NC(=O)[C@@H](NC(=O)[C@H](Cc1ccccc1)NC(=O)[C@H](CC(=O)O)NC(=O)[C@H](CCCCNC(=O)CC[C@H](NC(=O)CCCCCCCCCCCCCCCCC(=O)O)C(=O)O)NC(=O)[C@H](C)NC(=O)[C@H](C)NC(=O)[C@H](CCCNC(=N)N)NC(=O)[C@H](CO)NC(=O)[C@H](CC(=O)O)NC(=O)[C@H](CC(C)C)NC(=O)[C@](C)(Cc1ccccc1)NC(=O)[C@H](CCCCN)NC(=O)[C@H](CO)NC(=O)[C@@H](NC(=O)[C@H](CC(=O)O)NC(=O)[C@H](CO)NC(=O)[C@@H](NC(=O)[C@H](Cc1ccccc1)NC(=O)[C@@H](NC(=O)CNC(=O)[C@H](CCC(N)=O)NC(=O)C(C)(C)NC(=O)[C@@H](N)Cc1c[nH]cn1)[C@@H](C)O)[C@@H](C)O)C(C)C)C(C)C)C(=O)N[C@@H](C)C(=O)N[C@@H](CC(N)=O)C(=O)N[C@H](C(=O)O)[C@@H](C)O [Peptide 342]
